The test system of one experiment is Jurkat cells. Description: Cell proliferation assay, growth inhibition by Alamar Blue. Format: cell-based. Particulars: Homo sapiens, 72 h, treated with compound for 3 days. The procedure: Cell lines are obtained from DSMZ (Braunschweig, Germany) or ATCC (Manassas, Va.). Cells are grown in RPMI 1640 with 10% fetal bovine serum in a 5% CO2/air incubator at 37° C. Thapsigargin and BAPTA-AM are from Calbiochem (San Diego, Calif.). 3-((dimethylamino)methyl)-N-(2-(4-(hydroxycarbamoyl)phenoxy)ethyl)benzofuran-2-carboxamide is a broad-spectrum HDAC inhibitor which was synthesized as previously described. Other analogs with varying degrees of specificity towards the HDAC isoforms are synthesized as described herein.
Tumor cell lines and human umbilical vein endothelial cells (HUVEC) are cultured for at least two doubling times, and growth is monitored at the end of compound exposure using an Alamar Blue™ (Biosource, Camarillo, Calif.) fluorometric cell proliferation assay as recommended by the manufacturer. Compounds are assayed in triplicate wells in 96-well plates. The concentration required to inhibit cell growth by 50% (GI50) and 95% confidence intervals are estimated from nonlinear regression using a 4-parameter logistic equation. The effect of HDAC8 selective inhibitor compounds on cell proliferation in Jurkat cells is measured. Apoptosis is measured by Annexin-V flow cytommetry. Growth inhibiton iss measured by Alamar Blue assay. Cells are treated with compound for 3 days.
(In general: Resazurin is reduced to fluorescent resorufin, in cell work by metabolically active cells.)

A further experiment has as its target T1, HDAC6 (Homo sapiens, UniProt Q9UBN7).
T1 sequence (Q9UBN7 1-1215): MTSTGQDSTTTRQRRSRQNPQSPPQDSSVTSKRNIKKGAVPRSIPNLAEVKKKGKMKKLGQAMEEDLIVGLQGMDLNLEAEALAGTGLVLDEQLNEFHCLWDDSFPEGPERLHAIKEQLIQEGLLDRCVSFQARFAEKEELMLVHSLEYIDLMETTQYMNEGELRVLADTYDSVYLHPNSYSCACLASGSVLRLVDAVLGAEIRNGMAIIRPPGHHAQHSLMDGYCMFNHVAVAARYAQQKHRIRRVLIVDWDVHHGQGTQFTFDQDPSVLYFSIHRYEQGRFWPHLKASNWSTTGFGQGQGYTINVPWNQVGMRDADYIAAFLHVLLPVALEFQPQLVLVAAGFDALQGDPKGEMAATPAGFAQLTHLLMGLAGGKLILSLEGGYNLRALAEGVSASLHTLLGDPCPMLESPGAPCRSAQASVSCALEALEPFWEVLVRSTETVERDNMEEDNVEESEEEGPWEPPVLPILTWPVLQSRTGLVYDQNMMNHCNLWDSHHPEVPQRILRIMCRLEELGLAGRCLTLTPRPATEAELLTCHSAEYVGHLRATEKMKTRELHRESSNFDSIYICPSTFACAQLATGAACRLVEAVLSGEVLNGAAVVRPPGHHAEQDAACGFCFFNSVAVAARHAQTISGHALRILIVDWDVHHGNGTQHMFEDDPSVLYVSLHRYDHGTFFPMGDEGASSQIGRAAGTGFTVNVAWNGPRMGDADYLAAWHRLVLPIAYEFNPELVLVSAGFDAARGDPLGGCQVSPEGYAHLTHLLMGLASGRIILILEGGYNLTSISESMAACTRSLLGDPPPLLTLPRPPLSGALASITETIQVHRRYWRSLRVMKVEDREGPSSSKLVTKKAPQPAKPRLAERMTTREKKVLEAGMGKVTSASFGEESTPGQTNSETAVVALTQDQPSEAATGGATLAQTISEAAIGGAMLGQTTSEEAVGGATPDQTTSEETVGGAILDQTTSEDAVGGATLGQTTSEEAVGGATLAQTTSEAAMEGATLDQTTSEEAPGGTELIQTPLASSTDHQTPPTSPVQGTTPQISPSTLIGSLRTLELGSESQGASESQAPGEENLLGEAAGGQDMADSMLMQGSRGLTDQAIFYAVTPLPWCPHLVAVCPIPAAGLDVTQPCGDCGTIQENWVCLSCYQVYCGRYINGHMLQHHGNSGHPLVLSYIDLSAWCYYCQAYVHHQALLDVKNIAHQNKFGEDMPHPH
Description: Histone deacetylase activity, continuous trypsin-coupled assay. To be noted: trypsin-coupled fluorescence assay, acetyl-Gly-Ala-(N-acetyl-Lys)-AMC substrate. In kind it is biochemical. The procedure:
(§1) HDAC activity is measured using a continuous trypsin-coupled assay that has been described in detail previously (US 20070281934; Schultz et. al., Biochemistry, 43 (34), 11083-11091, 2004; Kim et al. (2006), Methods Mol. Biol., 325:273-283). For inhibitor characterization, measurements are performed in a reaction volume of 100 µL using 96-well assay plates in a fluorescence plate reader. For each isozyme, the HDAC protein in reaction buffer (50 mM HEPES, 100 mM KCl, 0.001% Tween-20, 5% DMSO, pH 7.4, supplemented with bovine serum albumin at concentrations of 0-0.05%, is mixed with inhibitor at various concentrations and allowed to incubate for 15 minutes. Trypsin is added to a final concentration of 50 nM, and acetyl-Gly-Ala-(N-acetyl-Lys)-AMC is added to a final concentration of 25-100 μM to initiate the reaction. After a 30 minute lag time, the fluorescence is measured over a 30 minute time frame using an excitation wavelength of 355 nm and a detection wavelength of 460 nm. The increase in fluorescence with time is used as the measure of the reaction rate. Inhibition constants Ki(app) were obtained using the program BatchKi (Biokin, Pullman, Wash.).

Another experiment concerns the target HDAC1 (Homo sapiens, UniProt Q13547). Described as above. Format: biochemical. To be noted: trypsin-coupled fluorescence assay, acetyl-Gly-Ala-(N-acetyl-Lys)-AMC substrate. The protocol:
as §1

The target of a further experiment is T2, HDAC8 (Homo sapiens, UniProt Q9BY41).
T2 sequence (Q9BY41 1-377): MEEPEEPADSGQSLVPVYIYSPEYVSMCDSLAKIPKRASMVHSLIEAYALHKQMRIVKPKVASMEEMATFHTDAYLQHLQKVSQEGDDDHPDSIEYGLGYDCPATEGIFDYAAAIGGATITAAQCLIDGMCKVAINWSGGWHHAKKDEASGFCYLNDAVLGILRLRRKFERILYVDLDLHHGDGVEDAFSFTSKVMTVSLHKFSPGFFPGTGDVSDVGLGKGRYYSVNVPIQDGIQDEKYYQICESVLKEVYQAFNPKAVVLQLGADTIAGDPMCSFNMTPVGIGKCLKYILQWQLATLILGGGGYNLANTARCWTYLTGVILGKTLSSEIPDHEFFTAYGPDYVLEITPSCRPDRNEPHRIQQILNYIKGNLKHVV
The description is as above. Format: biochemical. To be noted: trypsin-coupled fluorescence assay, acetyl-Gly-Ala-(N-acetyl-Lys)-AMC substrate. The procedure: as §1

This is an account of results in US20150045367A1, “CINNAMIC ACID HYDROXYAMIDES AS INHIBITORS OF HISTONE DEACETYLASE 8” (PHARMACYCLICS, INC., priority 2011, published 2015).

As a reminder, the GI50 is the concentration at which growth is held to half of that of the control. A word on the IC50: it is the concentration at which inhibition is half-maximal.

Chain of HDAC1 (Q13547 whole entry): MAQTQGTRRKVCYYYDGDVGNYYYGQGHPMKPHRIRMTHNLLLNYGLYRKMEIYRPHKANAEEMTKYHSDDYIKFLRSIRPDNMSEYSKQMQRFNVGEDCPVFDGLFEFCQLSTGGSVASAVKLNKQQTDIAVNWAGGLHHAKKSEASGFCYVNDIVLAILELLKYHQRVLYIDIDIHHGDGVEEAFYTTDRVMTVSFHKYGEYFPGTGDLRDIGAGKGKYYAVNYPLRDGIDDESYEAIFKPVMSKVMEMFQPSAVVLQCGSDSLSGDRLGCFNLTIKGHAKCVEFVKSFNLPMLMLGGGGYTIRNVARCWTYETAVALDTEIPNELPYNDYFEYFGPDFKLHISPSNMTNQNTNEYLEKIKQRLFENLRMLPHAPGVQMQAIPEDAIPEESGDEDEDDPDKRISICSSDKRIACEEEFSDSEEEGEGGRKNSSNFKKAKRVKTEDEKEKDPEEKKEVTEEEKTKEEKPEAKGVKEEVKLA

For `Cc1cccc(Oc2ccccc2/C=C/C(=O)NO)c1` [Compound 13, (E)-N-hydroxy-3-(2-(m-tolyloxy)phenyl)acrylamide], in the experiment with Jurkat cells, the GI50 is 2500 nM. Besides, the figures for the IC50 on HDAC6, against HDAC1 and against HDAC8 were 1000 to 10000 nM, 1000 to 10000 nM and not above 100 nM, respectively.
For `O=C(/C=C/c1ccccc1Oc1cccc(Cl)c1)NO` [Compound 11, (E)-3-(2-(3-Chlorophenoxy)phenyl)-N-hydroxyacrylamide], the GI50 in the experiment with Jurkat cells turned out to be 1980 nM. Besides, the IC50 against HDAC6 was 100 to 1000 nM; on HDAC1 it was 1000 to 10000 nM; against HDAC8, not above 100 nM.
Take `CN1CCN(CCOc2ccc(/C=C/C(=O)NO)c(Oc3cccc(Cl)c3)c2)CC1` [Compound 68, (E)-3-(2-(3-chlorophenoxy)-4-(2-(4-methylpiperazin-1-yl)ethoxy)phenyl)-N-hydroxyacrylamide]: the IC50 against HDAC6 was 100 to 1000 nM; against HDAC1, 1000 to 10000 nM; at HDAC8, not above 100 nM.
Consider `O=C(/C=C/c1ccccc1Oc1ccccc1)NO` [Compound 7, (E)-N-Hydroxy-3-(2-phenoxyphenyl)acrylamide], for which the results for the IC50 on HDAC6, on HDAC1 and against HDAC8 were 100 to 1000 nM, 1000 to 10000 nM and not above 100 nM, respectively.
Take `Cc1ccc(Oc2ccccc2/C=C/C(=O)NO)cc1` [Compound 8, (E)-3-(2-(p-Tolyloxy)phenyl)-N-hydroxyacrylamide]: the GI50 with Jurkat cells amounted to 6100 nM. The IC50 at HDAC6 is 100 to 1000 nM; on HDAC1, 1000 to 10000 nM; on HDAC8 it was not above 100 nM.
Take `O=C(/C=C/c1ccccc1Oc1ccc(F)cc1)NO` [Compound 9, (E)-3-(2-(4-Fluorophenoxy)phenyl)-N-hydroxyacrylamide]: the GI50 in the experiment on Jurkat cells was determined as 2000 nM. Moreover, the IC50 at HDAC6 is 1000 to 10000 nM; at HDAC1 it was 1000 to 10000 nM; against HDAC8, not above 100 nM.
Regarding `O=C(/C=C/c1cc(NCc2cccnc2)ccc1Oc1ccc(F)cc1)NO` [Compound 49, (E)-3-(2-(4-fluorophenoxy)-5-(pyridin-3-ylmethylamino)phenyl)-N-hydroxyacrylamide], the IC50 against HDAC6 was 1000 to 10000 nM; on HDAC1 it was more than 10000 nM; against HDAC8 it was not above 100 nM.
On the same counts, the results for `O=C(/C=C/c1ccc(OCCN2CCOCC2)cc1Oc1cccc(Cl)c1)NO` [Compound 67, (E)-3-(2-(3-chlorophenoxy)-4-(2-morpholinoethoxy)phenyl)-N-hydroxyacrylamide] are 100 to 1000 nM, 1000 to 10000 nM and not above 100 nM.
With `O=C(/C=C/c1ccccc1Oc1ccncc1)NO` [Compound 17, (E)-N-Hydroxy-3-(2-(pyridin-4-yloxy)phenyl)acrylamide], the IC50 against HDAC6 was more than 10000 nM; against HDAC1 it was more than 10000 nM; at HDAC8, not above 100 nM.
`O=C(/C=C/c1ccccc1Oc1ccc(Cl)cc1)NO` [Compound 6, (E)-3-(2-(4-chlorophenoxy)phenyl)-N-hydroxyacrylamide]: in the experiment on Jurkat cells, the GI50 is 1430 nM. Further, the IC50 was 1000 to 10000 nM against HDAC6, 1000 to 10000 nM on HDAC1 and not above 100 nM on HDAC8.
Regarding `O=C(/C=C/c1ccc(OCc2cccnc2)cc1Oc1cccc(Cl)c1)NO` [Compound 59, (E)-3-(2-(3-chlorophenoxy)-4-(pyridin-3-ylmethoxy)phenyl)-N-hydroxyacrylamide], the IC50 against HDAC6 is 100 to 1000 nM; against HDAC1, 1000 to 10000 nM; on HDAC8, not above 100 nM.
With `COc1cccc(Oc2ccccc2/C=C/C(=O)NO)c1` [Compound 15, (E)-N-hydroxy-3-(2-(3-methoxyphenoxy)phenyl)acrylamide], the GI50 in the experiment on Jurkat cells amounted to 3370 nM. Moreover, the IC50 against HDAC6 is 100 to 1000 nM; against HDAC1 it was 1000 to 10000 nM; against HDAC8, not above 100 nM.
For `COc1ccc(Oc2ccccc2/C=C/C(=O)NO)cc1` [Compound 10, (E)-N-hydroxy-3-(2-(4-methoxyphenoxy)phenyl)acrylamide], in that order: 2250 nM, 100 to 1000 nM, 1000 to 10000 nM and not above 100 nM.
On the same counts, the results for `O=C(/C=C/c1ccccc1Oc1ccc(Cl)c(Cl)c1)NO` [Compound 12, (E)-3-(2-(3,4-Dichlorophenoxy)phenyl)-N-hydroxyacrylamide] are 1800 nM, 1000 to 10000 nM, 1000 to 10000 nM and not above 100 nM.
With `CN(C)CCOc1ccc(/C=C/C(=O)NO)c(Oc2cccc(Cl)c2)c1` [Compound 69, (E)-3-(2-(3-chlorophenoxy)-4-(2-(dimethylamino)ethoxy)phenyl)-N-hydroxyacrylamide], the IC50 is 100 to 1000 nM against HDAC6, 100 to 1000 nM against HDAC1 and not above 100 nM at HDAC8.
With `O=C(/C=C/c1ccccc1Oc1cccc(F)c1)NO` [Compound 14, (E)-3-(2-(3-Fluorophenoxy)phenyl)-N-hydroxyacrylamide], in the experiment on Jurkat cells, the GI50 was 3580 nM. In addition, the IC50 at HDAC6 was 1000 to 10000 nM; on HDAC1, 1000 to 10000 nM; against HDAC8, not above 100 nM.
On to `O=C(/C=C/c1ccccc1Oc1cccnc1)NO` [Compound 16, (E)-N-Hydroxy-3-(2-(pyridin-3-yloxy)phenyl)acrylamide], for which the GI50 in the experiment on Jurkat cells was more than 20000 nM. In addition, the IC50 is 1000 to 10000 nM against HDAC6, 1000 to 10000 nM at HDAC1 and not above 100 nM against HDAC8.
With `CC(=O)Nc1ccc(Oc2cccc(Cl)c2)c(/C=C/C(=O)NO)c1` [Compound 42, (E)-3-(5-acetamido-2-(3-chlorophenoxy)phenyl)-N-hydroxyacrylamide], the IC50 was more than 10000 nM against HDAC6, more than 10000 nM against HDAC1 and not above 100 nM against HDAC8.
`COCCOc1ccc(/C=C/C(=O)NO)c(Oc2ccc(Cl)c(Cl)c2)c1` [Compound 80, (E)-3-(2-(3,4-dichlorophenoxy)-4-(2-methoxyethoxy)phenyl)-N-hydroxyacrylamide]: the IC50 at HDAC6 is 1000 to 10000 nM; at HDAC1, more than 10000 nM; at HDAC8, not above 100 nM.
